These results are taken from US5369096A, “Glycolipid derivatives” (The Nisshin Oil Mills, Ltd., priority 1992, dated 1994).

In assay [1] the test system is Colo 201 cancer cells adhering to vascular endothelial cells of the normal human umbilical cord. The assay is described as follows: inhibition of adhesion of Colo 201 cancer cells to rhIL1β-stimulated vascular endothelial cells, liposome dispersion. The following applies: 11.8 μM equivalent; for Amount of Colo 201 cells adhered (fluorescence intensity): rhIL1β 200 U/ml, 485 nm. Format: cell-based. On the procedure:
(§1) A solution of 200 μg of phosphatidylcholine, 100 μg of cholesterol, 7.5 μg of dicetyl phosphate and 50 μg of a compound of the invention in a mixture of chloroform/methanol=2/1 (ca. 1 ml) was evaporated under reduced pressure to dryness followed by addition of 0.25 ml of a phosphate-buffered saline solution. The mixture was ultrasonicated (an output of 90 watts) for 5 min. and stirred (a vortex mixer) for 5 min. to form a liposome dispersion.
(§2) % Inhibition of adhesion=100-[(fluorescence intensity for rhIL1β-treated group+compound-free or a compound-containing liposome dispersion-treated group)-(fluorescence intensity for rhIL1β-untreated group)/(fluorescence intensity for rhIL1β-treated group-fluorescence intensity for rhIL1β-untreatedgroup)]×100
Vascular endothelial cells of the normal human umbilical cord grown to confluence were stimulated in 24-well plates with 200 U/ml of rhIL1β at 37° C. for 4 hours. After removal of the supernatant by suction liposome dispersions each prepared from 2→3 sialyl Le^x or a compound of the invention in an amount of 11.8 μM equivalent were added except for the rhIL1β-untreated and treated groups. The mixtures were then allowed to react at room temperature for 30 min. Subsequently, colon carcinoma cell line Colo 201 with 2',7'-bis-(carboxyethyl)-5,6-carboxyfluorescene acetoxymethyl ester fluorescent dye enclosed was added at a level of 1×10^6 cells per well followed by centrifugal operation at 100 rpm for 20 min. Each well was washed three times followed by addition of 0.5 ml of 0.5% Triton X-100 and stirring. The contents were divided into 100 μl portions in 96-well plates and measurement was made on a Baxter fluorometer at 485 nm.
4: rhIL1β-treated group+2→3 sialyl Le^x -containing liposome dispersion-treated group
5: rhIL1β-treated group+compound 5E-containing liposome dispersion-treated group (OEG)*
6: rhIL1β-treated group+compound 5A-containing liposome dispersion-treated group (2EG)
7: rhIL1β-treated group+compound 5B-containing liposome dispersion-treated group (3EG)
8: rhIL1β-treated group+compound 5C-containing liposome dispersion-treated group (4EG)
9: rhIL1β-treated group+compound 5D-containing liposome dispersion-treated group (5EG)
* OEG represents a control compound containing no CH2 CH2 O unit. The same shall apply hereinafter.
Amount adhered and % inhibition of adhesion of Colo 201 cancer cells as measured from fluorescence intensity are shown in Table 2 below.

In assay [2] the test system is HL-60 cells adhering to vascular endothelial cells of the normal human umbilical cord. The assay is described as follows: inhibition of adhesion of HL-60 cells to rhIL1β-stimulated vascular endothelial cells, liposome dispersion. In kind it is cell-based. The conditions noted are these: 20 μg/ml equivalent; for Amount of HL-60 cancer cells adhered (fluorescence intensity): rhIL1β 200 U/ml, 485 nm/535 nm. On the procedure:
as §1
Vascular endothelial cells of the normal human umbilical cord grown to confluence were stimulated in 24-well plates with 200 U/ml of recombinant interleukin 1β (called hereafter rhIL1β, manufactured by Genzyme) at 37° C. for 4 hours. After removal of the supernatant by suction, liposome dispersions each prepared from a compound of the invention in an amount of 20 μg/ml equivalent were added except for the rhIL1β-untreated group (sample 1) and the treated groups (samples 2 and 3). The mixtures were then allowed to react at room temperature for 30 min. Subsequently, promyelocytic leukemia cell line HL-60 with 2',7'-bis(carboxyethyl)-5,6-carboxyfluorescene acetoxymethyl ester fluorescent dye enclosed was added at a level of 1×10^6 cells per well followed by centrifugal operation at 100 rpm for 20 min. Each well was washed three times followed by addition of 0.5 ml of 0.5% Triton X-100 and stirring. The contents were divided into 100 μl portions in 96-well plates and measurement was made on a Baxter fluorometer at 485 nm/535 nm.
4: rhIL1β-treated group+compound 5A-containing liposome dispersion-treated group (2EG)*
5: rhIL1β-treated group+compound 5B-containing liposome dispersion-treated group (3EG)*
6: rhIL1β-treated group+compound 5C-containing liposome dispersion-treated group (4EG)*
7: rhIL1β-treated group+compound 5D-containing liposome dispersion-treated group (5EG)*
* 2EG, 3EG, 4EG or 5EG represents a compound of the invention containing 2, 3, 4 or 5 CH2 CH2 O units, respectively. The same shall apply hereinafter.
as §2

For `CCCCCCCCCCCCCCC(CCCCCCCCCCCCCC)C(=O)Nc1ccc(COCCOCCOCCOCCO[C@@H]2O[C@H](CO)[C@@H](O[C@@H]3O[C@H](CO)[C@H](O)[C@H](O[C@]4(C(=O)O)C[C@H](O)[C@@H](NC(C)=O)[C@H]([C@H](O)[C@H](O)CO)O4)[C@H]3O)[C@H](O[C@@H]3O[C@@H](C)[C@@H](O)[C@@H](O)[C@@H]3O)[C@H]2O)cc1` [Compound 5C, O-(5-acetamido-3,5-dideoxy-D-glycero-α-D-galacto-2-nonulopyranosylonic acid)-(2→3)-O-β-D-galactopyranosyl-(1→4)-[O-α-L-fucopyranosyl-(1→3)-O-β-D-glucopyranosyl]-(1→1)-11-O-para-(2-tetradecylhexadecanoyl)aminobenzyl-3,6,9-trioxaundecane-1,11-diol], the “Amount of Colo 201 cells adhered (fluorescence intensity)” value (“Amount of Colo 201 cells adhered” below) in assay [1] is recorded as 240330. Also, the “Amount of HL-60 cancer cells adhered (fluorescence intensity)” value (from here on “Amount of HL-60 cancer cells adhered”) in assay [2] is on record as 26907.
In the same order, the values of `CCCCCCCCCCCCCCC(CCCCCCCCCCCCCC)C(=O)Nc1ccc(COCCOCCOCCO[C@@H]2O[C@H](CO)[C@@H](O[C@@H]3O[C@H](CO)[C@H](O)[C@H](O[C@]4(C(=O)O)C[C@H](O)[C@@H](NC(C)=O)[C@H]([C@H](O)[C@H](O)CO)O4)[C@H]3O)[C@H](O[C@@H]3O[C@@H](C)[C@@H](O)[C@@H](O)[C@@H]3O)[C@H]2O)cc1` [Compound 5B, O-(5-acetamido-3,5-dideoxy-D-glycero-α-D-galacto-2-nonulopyranosylonic acid)-(2→3)-O-β-D-galactopyranosyl-(1→4)-[O-α-L-fucopyranosyl-(1→3)-O-β-D-glucopyranosyl]-(1→1)-8-O-para-(2-tetradecylhexadecanoyl)aminobenzyl-3,6-dioxaoctane-1,8-diol] are 212789 and 17957.
Turning to `CCCCCCCCCCCCCCC(CCCCCCCCCCCCCC)C(=O)Nc1ccc(COCCOCCO[C@@H]2O[C@H](CO)[C@@H](O[C@@H]3O[C@H](CO)[C@H](O)[C@H](O[C@]4(C(=O)O)C[C@H](O)[C@@H](NC(C)=O)[C@H]([C@H](O)[C@H](O)CO)O4)[C@H]3O)[C@H](O[C@@H]3O[C@@H](C)[C@@H](O)[C@@H](O)[C@@H]3O)[C@H]2O)cc1` [Compound 5A, O-(5-acetamido-3,5-dideoxy-D-glycero-α-D-galacto-2-nonulopyranosylonic acid)-(2→3)-O-β-D-galactopyranosyl-(1→4)-[O-α-L-fucopyranosyl-(1→3)-O-β-D-glucopyranosyl]-(1→1)-5-O-para-(2-tetradecylhexadecanoyl)aminobenzyl-3-oxapentane-1,5-diol], the “Amount of Colo 201 cells adhered” value in assay [1] was 246293. Also, the “% Inhibition of adhesion” value was 66.69% in assay [1] (Colo 201 cells) and 80.04% in assay [2] (HL-60 cells). The “Amount of HL-60 cancer cells adhered” value in assay [2] stood at 22769.
As for `CCCCCCCCCCCCCCC(CCCCCCCCCCCCCC)C(=O)Nc1ccc(COCCOCCOCCOCCOCCO[C@@H]2O[C@H](CO)[C@@H](O[C@@H]3O[C@H](CO)[C@H](O)[C@H](O[C@]4(C(=O)O)C[C@H](O)[C@@H](NC(C)=O)[C@H]([C@H](O)[C@H](O)CO)O4)[C@H]3O)[C@H](O[C@@H]3O[C@@H](C)[C@@H](O)[C@@H](O)[C@@H]3O)[C@H]2O)cc1` [Compound 5D, O-(5-acetamido-3,5-dideoxy-D-glycero-α-D-galacto-2-nonulopyranosylonic acid)-(2→3)-O-β-D-galactopyranosyl-(1→4)-[O-α-L-fucopyranosyl-(1→3)-O-β-D-glucopyranosyl]-(1→1)-5-O-para-(2-tetradecylhexadecanoyl)aminobenzyl-3,6,9,12-tetraoxatetradecane-1,14-diol], the “Amount of Colo 201 cells adhered” value in assay [1] worked out at 240554. The “Amount of HL-60 cancer cells adhered” value in assay [2] turned out to be 17405.
